# Species on record: Rattus norvegicus
# Test: DrugMatrix - Regimen: Daily Repeat
# Assay type: toxicity, organism-based, Sprague-Dawley
# Set-up: regimen Daily Repeat, gender Male, age 6-8 weeks
# Settings: in vivo, po, route oral GAVAGE, vehicle 100 % WATER; for ABSOLUTE BASOPHIL / ABSOLUTE EOSINOPHIL / ABSOLUTE LYMPHOCYTE / ABSOLUTE MONOCYTE / ABSOLUTE SEGMENTED NEUTROPHIL / BASOPHIL / EOSINOPHIL / ERYTHROCYTE COUNT / HEMATOCRIT / HEMOGLOBIN / LEUKOCYTE COUNT / LYMPHOCYTE / MEAN CORPUSCULAR HEMOGLOBIN / MEAN CORPUSCULAR HEMOGLOBIN CONCENTRATION / MEAN CORPUSCULAR VOLUME / MONOCYTE / NEUTROPHIL / NUCLEATED RED BLOOD CELLS / PLATELET COUNT: tissue Blood; for ALANINE AMINOTRANSFERASE / ALBUMIN / ALKALINE PHOSPHATASE / ASPARTATE AMINOTRANSFERASE / BLOOD UREA NITROGEN / CARBON DIOXIDE / CHLORIDE / CHOLESTEROL / CREATINE PHOSPHOKINASE / CREATININE / GLUCOSE / LACTATE DEHYDROGENASE / LIPASE / PHOSPHORUS / POTASSIUM / SODIUM / TOTAL BILIRUBIN / TOTAL PROTEIN / URIC ACID: tissue Plasma
# [1] = 0 mg/kg, 72 h, dose level Control, time 3 day
# [2] = 0 mg/kg, 120 h, dose level Control, time 5 day
# [3] = 0.3 mg/kg, 72 h, dose level Low, time 3 day
compound,measurement,setting,value
Clc1cccc(Cl)c1N=C1NCCN1 [CLONIDINE],ABSOLUTE BASOPHIL,[1],0 CELLS/uL
same,ABSOLUTE EOSINOPHIL,[1],24 CELLS/uL
same,ABSOLUTE LYMPHOCYTE,[1],13105 CELLS/uL
same,ABSOLUTE MONOCYTE,[1],76 CELLS/uL
same,ABSOLUTE SEGMENTED NEUTROPHIL,[1],2145 CELLS/uL
same,BASOPHIL,[1],0%
same,EOSINOPHIL,[1],0.17%
same,ERYTHROCYTE COUNT,[1],5.81 x10E6/uL
same,HEMATOCRIT,[1],35.6%
same,HEMOGLOBIN,[1],13.72 G/DL
same,LEUKOCYTE COUNT,[1],15.35 x10E3/uL
same,LYMPHOCYTE,[1],85.5%
same,MEAN CORPUSCULAR HEMOGLOBIN,[1],23.62 pg
same,MEAN CORPUSCULAR HEMOGLOBIN CONCENTRATION,[1],38.55 G/DL
same,MEAN CORPUSCULAR VOLUME,[1],61.23 fL
same,MONOCYTE,[1],0.5%
same,NEUTROPHIL,[1],13.83%
same,NUCLEATED RED BLOOD CELLS,[1],0 /100WBC
same,PLATELET COUNT,[1],1189.83 x10E3/uL
same,ALANINE AMINOTRANSFERASE,[1],48.67 u/L
same,ALBUMIN,[1],4.27 G/DL
same,ALKALINE PHOSPHATASE,[1],335 u/L
same,ASPARTATE AMINOTRANSFERASE,[1],86.5 u/L
same,BLOOD UREA NITROGEN,[1],14.33 mg/dL
same,CARBON DIOXIDE,[1],29.17 mmol/L
same,CHLORIDE,[1],99.83 MEQ/L
same,CHOLESTEROL,[1],71.83 mg/dL
same,CREATINE PHOSPHOKINASE,[1],506.83 u/L
same,CREATININE,[1],0.18 mg/dL
same,GLUCOSE,[1],162.17 mg/dL
same,LACTATE DEHYDROGENASE,[1],264.5 u/L
same,LIPASE,[1],9.67 u/L
same,PHOSPHORUS,[1],11.92 mg/dL
same,POTASSIUM,[1],6.55 MEQ/L
same,SODIUM,[1],141.53 MEQ/L
same,TOTAL BILIRUBIN,[1],0.18 mg/dL
same,TOTAL PROTEIN,[1],5.87 G/DL
same,URIC ACID,[1],1.67 mg/dL
same,ABSOLUTE BASOPHIL,[2],0 CELLS/uL
same,ABSOLUTE EOSINOPHIL,[2],25.33 CELLS/uL
same,ABSOLUTE LYMPHOCYTE,[2],15680 CELLS/uL
same,ABSOLUTE MONOCYTE,[2],92.33 CELLS/uL
same,ABSOLUTE SEGMENTED NEUTROPHIL,[2],2102.33 CELLS/uL
same,BASOPHIL,[2],0%
same,EOSINOPHIL,[2],0.17%
same,ERYTHROCYTE COUNT,[2],6 x10E6/uL
same,HEMATOCRIT,[2],35.55%
same,HEMOGLOBIN,[2],14.12 G/DL
same,LEUKOCYTE COUNT,[2],17.9 x10E3/uL
same,LYMPHOCYTE,[2],87.33%
same,MEAN CORPUSCULAR HEMOGLOBIN,[2],23.65 pg
same,MEAN CORPUSCULAR HEMOGLOBIN CONCENTRATION,[2],39.77 G/DL
same,MEAN CORPUSCULAR VOLUME,[2],59.52 fL
same,MONOCYTE,[2],0.5%
same,NEUTROPHIL,[2],12%
same,NUCLEATED RED BLOOD CELLS,[2],0.17 /100WBC
same,PLATELET COUNT,[2],1325.67 x10E3/uL
same,ALANINE AMINOTRANSFERASE,[2],56.17 u/L
same,ALBUMIN,[2],4.23 G/DL
same,ALKALINE PHOSPHATASE,[2],371.5 u/L
same,ASPARTATE AMINOTRANSFERASE,[2],91 u/L
same,BLOOD UREA NITROGEN,[2],15.33 mg/dL
same,CARBON DIOXIDE,[2],27.67 mmol/L
same,CHLORIDE,[2],99.5 MEQ/L
same,CHOLESTEROL,[2],66.5 mg/dL
same,CREATINE PHOSPHOKINASE,[2],518.5 u/L
same,CREATININE,[2],0.18 mg/dL
same,GLUCOSE,[2],143.33 mg/dL
same,LACTATE DEHYDROGENASE,[2],238.83 u/L
same,LIPASE,[2],9.33 u/L
same,PHOSPHORUS,[2],10.68 mg/dL
same,POTASSIUM,[2],6.5 MEQ/L
same,SODIUM,[2],141.88 MEQ/L
same,TOTAL BILIRUBIN,[2],0.18 mg/dL
same,TOTAL PROTEIN,[2],6 G/DL
same,URIC ACID,[2],1.63 mg/dL
same,ABSOLUTE BASOPHIL,[3],0 CELLS/uL
same,ABSOLUTE EOSINOPHIL,[3],0 CELLS/uL
same,ABSOLUTE LYMPHOCYTE,[3],15419.33 CELLS/uL
same,ABSOLUTE MONOCYTE,[3],122.67 CELLS/uL
same,ABSOLUTE SEGMENTED NEUTROPHIL,[3],2191.33 CELLS/uL
same,BASOPHIL,[3],0%
same,EOSINOPHIL,[3],0%
same,ERYTHROCYTE COUNT,[3],5.84 x10E6/uL
same,HEMATOCRIT,[3],35.27%
same,HEMOGLOBIN,[3],13.6 G/DL
same,LEUKOCYTE COUNT,[3],17.73 x10E3/uL
same,LYMPHOCYTE,[3],87%
same,MEAN CORPUSCULAR HEMOGLOBIN,[3],23.23 pg
same,MEAN CORPUSCULAR HEMOGLOBIN CONCENTRATION,[3],38.57 G/DL
same,MEAN CORPUSCULAR VOLUME,[3],60.37 fL
same,MONOCYTE,[3],0.67%
same,NEUTROPHIL,[3],12.33%
same,NUCLEATED RED BLOOD CELLS,[3],0 /100WBC
same,PLATELET COUNT,[3],1290.67 x10E3/uL
same,ALANINE AMINOTRANSFERASE,[3],45.33 u/L
same,ALBUMIN,[3],3.9 G/DL
same,ALKALINE PHOSPHATASE,[3],319 u/L
same,ASPARTATE AMINOTRANSFERASE,[3],93.67 u/L
same,BLOOD UREA NITROGEN,[3],18.33 mg/dL
same,CARBON DIOXIDE,[3],27.33 mmol/L
same,CHLORIDE,[3],101.67 MEQ/L
same,CHOLESTEROL,[3],75 mg/dL
same,CREATINE PHOSPHOKINASE,[3],321.67 u/L
same,CREATININE,[3],0.19 mg/dL
same,GLUCOSE,[3],140.33 mg/dL
same,LACTATE DEHYDROGENASE,[3],166 u/L
same,LIPASE,[3],9.67 u/L
same,PHOSPHORUS,[3],10.43 mg/dL
same,POTASSIUM,[3],6.56 MEQ/L
same,SODIUM,[3],141.9 MEQ/L
same,TOTAL BILIRUBIN,[3],0.17 mg/dL
same,TOTAL PROTEIN,[3],5.63 G/DL
same,URIC ACID,[3],1.87 mg/dL

# — ChEMBL document CHEMBL3885881, “DrugMatrix”
